Source: patent publication US7091346B1, “Purine derivatives and processes for their preparation” (Novartis AG, priority 1995, dated 2006)

| Structure (SMILES) | melting point [°C] |
| --- | --- |
| CCn1cnc2c(Nc3ccc(F)cc3)nc(NCCO)nc21 [Example 99, 9-ethyl-6-(4-fluoro-phenyl-amino)-2-(2-hydroxy-ethyl-amino)-9H-purine] | 152 |
| COc1cccc(Nc2nc(NCCN)nc3c2ncn3C(C)C)c1 [Example 101, 2-(2-amino-ethyl-amino)-9-isopropyl-6-(3-methoxy-phenyl-amino)-9H-purine] | 181 |
| CCn1cnc2c(Nc3ccc(C(F)(F)F)cc3)nc(NCCO)nc21 [Example 104, 9-Ethyl-2-(2-hydroxy-ethyl-amino)-6-(4-trifluoromethyl-phenyl-amino)-9H-purine] | 191 to 192 |
| CCn1cnc2c(Nc3cc(C(F)(F)F)cc(C(F)(F)F)c3)nc(NCCO)nc21 [Example 105, 9-ethyl-2-(2-hydroxy-ethyl-amino)-6-(3,5-di-trifluoromethyl-phenyl-amino)-9H-purine] | 202 |
| CCn1cnc2c(Nc3ccc(Cl)c(C(F)(F)F)c3)nc(NCCO)nc21 [Example 106, 6-(4-chloro-3-trifluoromethyl-phenyl-amino)-9-ethyl-2-(2-hydroxy-ethyl-amino)-9H-purine] | 194 |
| CCn1cnc2c(Nc3ccc(NC(=O)OCc4ccccc4)cc3)nc(NCCO)nc21 [Example 107, 6-(4-benzyloxycarbonylamino-phenyl-amino)-9-ethyl-2-(2-hydroxy-ethyl-amino)-9H-purine] | 148 |
| CCn1cnc2c(Nc3ccc(N)cc3)nc(NCCO)nc21 [Example 108, 6-(4-amino-phenyl-amino)-9-ethyl-2-(2-hydroxy-ethyl-amino)-9H-purine] | 210 |
